Measured values from US20260262643A1, “HERBICIDAL BENZOXAZINES” (FMC CORPORATION, priority 2022, published 2026).

Assays:
[1] = tested on: kochia; assay: Test C postemergence; type: in vivo, Bassia scoparia; details: 10 days, 0 to 100 scale (0 no effect, 100 complete control)
Procedure, shortened: (§1)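 Test material, in non-phytotoxic solvent with surfactant, was sprayed on the soil directly after seeding (preemergence) or on young plants of 2–10 cm with one to two leaves (postemergence). Greenhouse, 10 days; 0–100 visual control scale.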

[2] = tested on: ducksalad; assay: Test D flooded paddy test; type: in vivo, Heteranthera limosa; details: 250 g ai/ha, applied to paddy water, visual rating after 13 to 14 days, scale 0 to 100 (0 no effect, 100 complete control)
Procedure, shortened: (§2)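 Seedlings reached the 2-leaf stage, then pots were flooded to 3 cm over the soil surface. Compound was applied into the water, depth was maintained, and plants stayed in the greenhouse 13 to 14 days before visual scoring (0–100) relative to controls.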

[3] = tested on: ryegrass, Italian; assay: Test C preemergence; type: in vivo, Lolium multiflorum
Procedure, shortened: as §1

[4] = tested on: barnyardgrass; assay: Test C preemergence; type: in vivo, Echinochloa crusgalli
Procedure, shortened: as §1

[5] = tested on: blackgrass; assay: Test C postemergence; type: in vivo, Alopecurus myosuroides; details: 10 days, 0 to 100 scale (0 no effect, 100 complete control)
Procedure, shortened: as §1

[6] = tested on: corn; assay: Test C postemergence; type: in vivo, Zea mays; details: 10 days, 0 to 100 scale (0 no effect, 100 complete control)
Procedure, shortened: as §1

[7] = tested on: pigweed, palmer; assay: Test C preemergence; type: in vivo, Amaranthus palmeri
Procedure, shortened: as §1

[8] = tested on: wheat; assay: Test C postemergence; type: in vivo, Triticum aestivum; details: 10 days, 0 to 100 scale (0 no effect, 100 complete control)
Procedure, shortened: as §1

[9] = tested on: wheat; assay: Test C preemergence; type: in vivo, Triticum aestivum
Procedure, shortened: as §1

[10] = tested on: oat, wild; assay: Test C preemergence; type: in vivo, Avena fatua
Procedure, shortened: as §1

[11] = tested on: soybean; assay: Test C preemergence; type: in vivo, Glycine max
Procedure, shortened: as §1

[12] = tested on: corn; assay: Test C preemergence; type: in vivo, Zea mays
Procedure, shortened: as §1

[13] = tested on: ragweed; assay: Test C postemergence; type: in vivo, Ambrosia artemisiifolia; details: 10 days, 0 to 100 scale (0 no effect, 100 complete control)
Procedure, shortened: as §1

[14] = tested on: barnyardgrass; assay: Test C postemergence; type: in vivo, Echinochloa crusgalli; details: 10 days, 0 to 100 scale (0 no effect, 100 complete control)
Procedure, shortened: as §1

[15] = tested on: galium; assay: Test C postemergence; type: in vivo, Galium aparine; details: 10 days, 0 to 100 scale (0 no effect, 100 complete control)
Procedure, shortened: as §1

[16] = tested on: soybean; assay: Test C postemergence; type: in vivo, Glycine max; details: 10 days, 0 to 100 scale (0 no effect, 100 complete control)
Procedure, shortened: as §1

[17] = tested on: kochia; assay: Test C preemergence; type: in vivo, Bassia scoparia
Procedure, shortened: as §1

[18] = tested on: blackgrass; assay: Test C preemergence; type: in vivo, Alopecurus myosuroides
Procedure, shortened: as §1

[19] = tested on: sedge, umbrella; assay: Test D flooded paddy test; type: in vivo, Cyperus difformis; details: 250 g ai/ha, applied to paddy water, visual rating after 13 to 14 days, scale 0 to 100 (0 no effect, 100 complete control)
Procedure, shortened: as §2

[20] = tested on: ryegrass, Italian; assay: Test C postemergence; type: in vivo, Lolium multiflorum; details: 10 days, 0 to 100 scale (0 no effect, 100 complete control)
Procedure, shortened: as §1

[21] = tested on: ragweed; assay: Test C preemergence; type: in vivo, Ambrosia artemisiifolia
Procedure, shortened: as §1

[22] = tested on: pigweed, palmer; assay: Test C postemergence; type: in vivo, Amaranthus palmeri; details: 10 days, 0 to 100 scale (0 no effect, 100 complete control)
Procedure, shortened: as §1

[23] = tested on: green foxtail; assay: Test C preemergence; type: in vivo, Setaria viridis
Procedure, shortened: as §1

[24] = tested on: oat, wild; assay: Test C postemergence; type: in vivo, Avena fatua; details: 10 days, 0 to 100 scale (0 no effect, 100 complete control)
Procedure, shortened: as §1

[25] = tested on: green foxtail; assay: Test C postemergence; type: in vivo, Setaria viridis; details: 10 days, 0 to 100 scale (0 no effect, 100 complete control)
Procedure, shortened: as §1

[26] = tested on: barnyardgrass; assay: Test D flooded paddy test; type: in vivo, Echinochloa crus-galli; details: 250 g ai/ha, applied to paddy water, visual rating after 13 to 14 days, scale 0 to 100 (0 no effect, 100 complete control)
Procedure, shortened: as §2

[27] = tested on: rice; assay: Test D flooded paddy test; type: in vivo, Oryza sativa; details: 250 g ai/ha, applied to paddy water, visual rating after 13 to 14 days, scale 0 to 100 (0 no effect, 100 complete control)
Procedure, shortened: as §2

[28] = tested on: horseweed; assay: Test C postemergence; type: in vivo, Erigeron canadensis; details: 10 days, 0 to 100 scale (0 no effect, 100 complete control)
Procedure, shortened: as §1

[29] = 500 g ai/ha, preemergence, 0 to 100 scale (0 no effect, 100 complete control)
[30] = Preemergence, 125 g ai/ha, 0 to 100 scale, 0 no effect, 100 complete control

In the case of COC[C@H]1CN(C(=O)c2cc(-n3cnc(C4CCC4)n3)cc3c2OCCO3)c2cccc(Cl)c2O1 [Compound 380], the “Plant response rating, Kochia” value ([1]; 500 g ai/ha, postemergence) is reported as 100, the “Plant response rating, Kochia” value ([1]; Postemergence, 125 g ai/ha) is reported as 100 and the “Plant response rating, Ducksalad (Flood)” value [2] is reported as 30. For the same compound, the “Ryegrass, Italian plant response rating” value [3, 29] was 80, the “Plant response rating, Ryegrass, Italian” value [3, 30] was 70 and the “Barnyardgrass plant response rating” value [4, 29] was 80. The “Plant response rating, Barnyardgrass” value [4, 30] was 20, the “Plant response rating, Blackgrass” value ([5]; 500 g ai/ha, postemergence) was 70 and the “Plant response rating, Blackgrass” value ([5]; Postemergence, 125 g ai/ha) was 20. For the same compound, the “Plant response rating, Corn” value ([6]; 500 g ai/ha, postemergence) was 50, the “Plant response rating, Corn” value ([6]; Postemergence, 125 g ai/ha) was 10 and the “Pigweed, Palmer plant response rating” value [7, 29] was 100. The “Plant response rating, Pigweed, Palmer” value [7, 30] was 100, the “Plant response rating, Wheat” value ([8]; 500 g ai/ha, postemergence) was 20 and the “Plant response rating, Wheat” value ([8]; Postemergence, 125 g ai/ha) was 10. For the same compound, the “Wheat plant response rating” value [9, 29] was 10, the “Plant response rating, Wheat” value [9, 30] was 0 and the “Oat, Wild plant response rating” value [10, 29] was 40. The “Plant response rating, Oat, Wild” value [10, 30] was 20, the “Soybean plant response rating” value [11, 29] was 90 and the “Plant response rating, Soybean” value [11, 30] was 50. The “Corn plant response rating” value [12, 29] was 50, the “Plant response rating, Corn” value [12, 30] was 0 and the “Plant response rating, Ragweed” value ([13]; 500 g ai/ha, postemergence) was 100. The “Plant response rating, Ragweed” value ([13]; Postemergence, 125 g ai/ha) was 90, the “Plant response rating, Barnyardgrass” value ([14]; 500 g ai/ha, postemergence) was 50 and the “Plant response rating, Barnyardgrass” value ([14]; Postemergence, 125 g ai/ha) was 20. For the same compound, the “Plant response rating, Galium” value ([15]; 500 g ai/ha, postemergence) was 100, the “Plant response rating, Galium” value ([15]; Postemergence, 125 g ai/ha) was 100 and the “Plant response rating, Soybean” value ([16]; 500 g ai/ha, postemergence) was 100. The “Plant response rating, Soybean” value ([16]; Postemergence, 125 g ai/ha) was 100, the “Kochia plant response rating” value [17, 29] was 90 and the “Plant response rating, Kochia” value [17, 30] was 0. For the same compound, the “Blackgrass plant response rating” value [18, 29] was 30, the “Plant response rating, Blackgrass” value [18, 30] was 0 and the “Plant response rating, Sedge, Umbrella (Flood)” value [19] was 40. For the same compound, the “Plant response rating, Ryegrass, Italian” value ([20]; 500 g ai/ha, postemergence) was 60, the “Plant response rating, Ryegrass, Italian” value ([20]; Postemergence, 125 g ai/ha) was 40 and the “Ragweed plant response rating” value [21, 29] was 90. The “Plant response rating, Ragweed” value [21, 30] was 70, the “Plant response rating, Pigweed, Palmer” value ([22]; 500 g ai/ha, postemergence) was 100 and the “Plant response rating, Pigweed, Palmer” value ([22]; Postemergence, 125 g ai/ha) was 90. The “Foxtail, Green plant response rating” value [23, 29] was 100, the “Plant response rating, Foxtail, Green” value [23, 30] was 50 and the “Plant response rating, Oat, Wild” value ([24]; 500 g ai/ha, postemergence) was 0. The “Plant response rating, Oat, Wild” value ([24]; Postemergence, 125 g ai/ha) was 0, the “Plant response rating, Foxtail, Green” value ([25]; 500 g ai/ha, postemergence) was 80 and the “Plant response rating, Foxtail, Green” value ([25]; Postemergence, 125 g ai/ha) was 20. The “Plant response rating, Barnyardgrass (Flood)” value [26] was 55, the “Plant response rating, Rice (Flood)” value [27] was 10 and the “Plant response rating, Horseweed” value ([28]; 500 g ai/ha, postemergence) was 60. The “Plant response rating, Horseweed” value ([28]; Postemergence, 125 g ai/ha) was 60.
